Test results published in US12070444B2, “Modulation of molecular markers using S-equol” (Board of Regents, The University of Texas System, priority 2020, dated 2024).
“Also recorded” adds a separate entry of the source.

Key:
[1] = tested on: MDA-MB-231 cell-derived xenograft tumor; assay: MDA-MB-231 xenograft in athymic nude mice; type: in vivo
Procedure: Further work in a preclinical animal model supports the notion of using S-equol to treat TNBC breast cancer. In immunocompromised mouse xenograft experiments, which used MDA-MB-231, a human TNBC breast cancer cell line, growth of tumors was suppressed by 60% with S-equol treatment compared to control. 5×10^6 MDA-MB-231 cells were injected orthotopically into mammary gland fat pads of 6 week-old female athymic nude mice (Harlan). When the tumor masses reached 50 to 80 mm^3 (about one week after the inoculation), the mice were given daily subcutaneous injections of S-equol (20 or 60 mg/kg per day) or PBS as a vehicle control. Tumor development was followed by caliper measurements along two orthogonal axes: length (L) and width (W) and volume (V) was estimated by the formula V=[L×(W^2)]/2. […] Representative tumor sections from vehicle control and S-equol-treated mice were tested for Ki-67 expression to assess cell proliferation, and for ERβ ([…]. Statistical significance in the experiments was assessed by two-tailed Student's t test. In all assays, p<0.05 was considered statistically significant. The results of these experiments are shown in FIGS. 16 and 20. See, Yuan et al. 2016 listed below, which is incorporated by reference herein for all purposes.

[2] = target: T1, ERβ (Mus musculus, UniProt O08537); assay: TCR activated ERβ tyrosine phosphorylation after anti-CD3/CD28 stimulation (IP-Western blot); type: cell-based; settings: anti-CD3/CD28-stimulated cells, pretreated with S-equol for 4 hrs (FIG. 26A)
T1 construct: endogenous in cells; b180 instead says mouse 'EF4' (probably EL4) lymphoma cells
Excerpt: FIG. 26. ERβ agonist S-equol promotes CD8+ T cell activation and antitumor immunotherapy. […] FIGS. 26B and 26C show B16 melanoma growth and tumor weight from wild type C57BL/6J male mice with four arm treatments. Vehicle+α-IgG, 5-equol+α-IgG, Vehicle+α-PD-1, S-equol+α-PD-1. […] Vehicle+α-IgG, S-equol+α-IgG, Vehicle+α-PD-1, S-equol+α-PD-1. GSEA analysis in ERβ-high versus ERβ-low human melanoma TILs (tumor infiltrating lymphocytes). The enrichment of (FIG. 26F) NFAT pathway and (FIG. 26G) TNFα signaling were evaluated.
Cells were stained and sorted as previously described (Clark, 2016), using LSR II and FACSAria hardware and analyzed by FACSDiva (BD Bioscience) and FlowJo software (FlowJo, LLC). CD8+ T cell isolation and in vitro activationCD8+ T cells were isolated from the spleens under aseptic conditions. Individual spleens were homogenized to release splenocytes. […] Single-cell suspensions from individual spleens were pooled, filtered through 70 μm and 40 μm cell strainer (Fisher) and counted. […]
Isolated mouse spleen and bone marrow were lysed in RIPA Lysis and 218 Extraction Buffer. Protein amounts were determined by using Pierce BCA Protein Assay Kits (Pierce, Cat: #23225). […] Proteins were detected with ECL SuperSignal™ West Pico PLUS Chemiluminescent Substrate (Thermo Fisher, Cat. #34580).

[3] = tested on: B16; assay: B16 tumors in mice with subcutaneous S-equol (Example 6, present tense); type: in vivo, mouse; settings: B16 cells, daily s.c. S-equol 20 or 60 mg/kg per day vs PBS
Procedure: Further work in a preclinical animal model supports the notion of using S-equol to treat melanoma. In immunocompromised mouse experiments, using B16, a murine tumor cell line know to be useful to study human melanoma metastasis and solid tumor formation, growth of tumors is suppressed with S-equol treatment compared to control. 0.5×10^6 B16 cells are injected into normal BL mice. When the tumor masses reach 50 to 80 mm^3 (about one week after the inoculation), the mice are given daily subcutaneous injections of S-equol (20 or 60 mg/kg per day) or PBS as a vehicle control. Tumor development is followed by caliper measurements along two orthogonal axes: length (L) and width (W) and volume (V) is estimated by the formula V=[L×(W^2)]/2. Tumors harvested from mice are fixed in 10% neutral-buffered formalin, dehydrated, embedded in paraffin, and sectioned at 3 μm thickness. Representative tumor sections from vehicle control and S-equol-treated mice are tested for Ki-67 expression to assess cell proliferation, and for ERβ pY36. Statistical significance in the experiments is assessed by two-tailed Student's t test. In all assays, p<0.05 is considered statistically significant.

T1 sequence (O08537 whole entry): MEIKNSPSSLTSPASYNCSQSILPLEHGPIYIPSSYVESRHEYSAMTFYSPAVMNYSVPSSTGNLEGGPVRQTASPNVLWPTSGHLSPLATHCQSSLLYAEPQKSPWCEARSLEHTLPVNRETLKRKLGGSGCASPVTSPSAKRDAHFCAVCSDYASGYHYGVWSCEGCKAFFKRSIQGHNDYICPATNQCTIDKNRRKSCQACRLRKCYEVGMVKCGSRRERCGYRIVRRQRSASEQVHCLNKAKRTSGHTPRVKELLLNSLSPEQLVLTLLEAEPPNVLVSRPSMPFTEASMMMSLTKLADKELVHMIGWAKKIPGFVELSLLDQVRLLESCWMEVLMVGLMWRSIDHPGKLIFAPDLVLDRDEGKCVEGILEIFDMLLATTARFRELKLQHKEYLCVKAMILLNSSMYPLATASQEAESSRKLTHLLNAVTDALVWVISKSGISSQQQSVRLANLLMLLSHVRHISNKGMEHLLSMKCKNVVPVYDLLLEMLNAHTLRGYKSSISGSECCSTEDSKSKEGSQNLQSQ

TCR activated ERβ tyrosine phosphorylation [2]: further enhanced
SMILES: Oc1ccc([C@H]2COc3cc(O)ccc3C2)cc1 [S-equol]
xenograft tumor growth ([1]; S-equol vs vehicle (FIG. 16B, FIG. 20)): inhibited; also recorded: reduces the growth of TNBC cells
growth of tumors suppressed compared to control ([1]; daily s.c. S-equol 20 or 60 mg/kg per day vs PBS): 60%
growth of tumors compared to control [3]: suppressed
